Test results taken from ChEMBL document CHEMBL4007416, “Thieno[3,2-b]pyrrole-5-carboxamides as New Reversible Inhibitors of Histone Lysine Demethylase KDM1A/LSD1. Part 2: Structure-Based Drug Design and Structure-Activity Relationship” (J Med Chem, 2017).
Active and inactive are the calls of the source. No cut-off for these calls is given here.

Tests used:
LSD1/CoREST complex = LSD1/CoREST complex (Homo sapiens, UniProt O60341); experiment: Inhibition of recombinant human KDM1A/CoREST complex expressed in Escherichia coli using [Lys(Me1)4]-Histone H3 (1 to 21 residues)-GGK(biotin) as substrate incubated for 20 mins measured after 1 hr by TR-FRET assay
[1] = target: T1, Amine oxidase [flavin-containing] A (Homo sapiens, UniProt P21397); experiment: Inhibition of recombinant human MAOA incubated for 15 mins measured after 30 mins by luminescence-Glo assay
T1 sequence (P21397 whole entry): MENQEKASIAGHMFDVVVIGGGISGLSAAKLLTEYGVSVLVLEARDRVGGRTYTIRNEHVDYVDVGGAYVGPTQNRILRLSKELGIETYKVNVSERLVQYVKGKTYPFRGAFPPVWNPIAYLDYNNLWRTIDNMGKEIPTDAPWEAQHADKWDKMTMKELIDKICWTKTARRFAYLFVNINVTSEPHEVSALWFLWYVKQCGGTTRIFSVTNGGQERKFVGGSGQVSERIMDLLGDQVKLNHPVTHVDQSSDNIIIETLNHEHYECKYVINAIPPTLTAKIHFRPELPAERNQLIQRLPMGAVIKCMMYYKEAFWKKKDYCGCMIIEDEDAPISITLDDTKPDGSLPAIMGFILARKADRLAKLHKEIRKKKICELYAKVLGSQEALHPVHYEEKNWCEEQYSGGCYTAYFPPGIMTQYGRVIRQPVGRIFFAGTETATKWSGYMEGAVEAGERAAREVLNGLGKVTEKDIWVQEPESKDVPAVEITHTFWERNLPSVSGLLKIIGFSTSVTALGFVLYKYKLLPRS

[2] = target: T2, Lysine-specific histone demethylase 2 (Homo sapiens, UniProt Q8NB78); experiment: Inhibition of KDM1B (unknown origin)
T2 sequence (Q8NB78 whole entry): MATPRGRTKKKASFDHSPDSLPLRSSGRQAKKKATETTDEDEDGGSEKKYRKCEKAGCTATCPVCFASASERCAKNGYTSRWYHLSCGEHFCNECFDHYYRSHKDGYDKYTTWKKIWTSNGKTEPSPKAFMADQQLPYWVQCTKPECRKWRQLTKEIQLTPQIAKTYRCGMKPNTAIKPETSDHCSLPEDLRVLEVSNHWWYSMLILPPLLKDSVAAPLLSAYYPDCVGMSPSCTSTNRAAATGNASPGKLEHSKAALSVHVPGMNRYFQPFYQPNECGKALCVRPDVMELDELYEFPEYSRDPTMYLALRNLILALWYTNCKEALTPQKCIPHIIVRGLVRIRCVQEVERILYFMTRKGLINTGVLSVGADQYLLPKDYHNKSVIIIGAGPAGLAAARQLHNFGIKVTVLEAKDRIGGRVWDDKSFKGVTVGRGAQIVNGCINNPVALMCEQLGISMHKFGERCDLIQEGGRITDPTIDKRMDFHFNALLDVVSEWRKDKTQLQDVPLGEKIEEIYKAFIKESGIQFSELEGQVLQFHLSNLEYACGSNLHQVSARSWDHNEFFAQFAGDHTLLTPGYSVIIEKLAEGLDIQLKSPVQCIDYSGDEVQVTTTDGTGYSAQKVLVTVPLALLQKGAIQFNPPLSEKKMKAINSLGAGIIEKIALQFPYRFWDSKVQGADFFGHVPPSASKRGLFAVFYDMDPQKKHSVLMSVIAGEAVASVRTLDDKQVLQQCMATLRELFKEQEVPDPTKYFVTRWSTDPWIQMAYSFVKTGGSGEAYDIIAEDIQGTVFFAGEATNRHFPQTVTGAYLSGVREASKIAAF

THP-1 [3] = experiment: Induction of apoptosis in human THP1 cells at 0.5 uM after 72 hrs by Annexin V-propidium iodide double staining based flow cytometry; assay type: functional, cell-based
THP-1 [4] = experiment: Cell cycle arrest in human THP1 cells at 0.5 uM after 72 hrs by propidium iodide staining based flow cytometry; assay type: functional
THP-1 [5] = experiment: Anticlonogenic activity against human THP1 cells assessed as inhibition of methylcellulose colony formation at 0.5 uM after 13 days relative to control; assay type: functional; conditions: THP-1, 312 h
[6] = target: Lysine-specific histone demethylase 1A (Homo sapiens) (UniProt O60341); experiment: Inhibition of KDM1A in human THP1 cells assessed as increase in CD86 expression level at 0.5 uM after 48 hrs by flow cytometric analysis; assay type: cell-based
MV4-11 = experiment: Antiproliferative activity against human MV4-11 cells
[7] = target: T3, Amine oxidase [flavin-containing] B (Homo sapiens, UniProt P27338); experiment: Inhibition of recombinant human MAOB incubated for 15 mins measured after 30 mins by luminescence-Glo assay
T3 sequence (P27338 whole entry): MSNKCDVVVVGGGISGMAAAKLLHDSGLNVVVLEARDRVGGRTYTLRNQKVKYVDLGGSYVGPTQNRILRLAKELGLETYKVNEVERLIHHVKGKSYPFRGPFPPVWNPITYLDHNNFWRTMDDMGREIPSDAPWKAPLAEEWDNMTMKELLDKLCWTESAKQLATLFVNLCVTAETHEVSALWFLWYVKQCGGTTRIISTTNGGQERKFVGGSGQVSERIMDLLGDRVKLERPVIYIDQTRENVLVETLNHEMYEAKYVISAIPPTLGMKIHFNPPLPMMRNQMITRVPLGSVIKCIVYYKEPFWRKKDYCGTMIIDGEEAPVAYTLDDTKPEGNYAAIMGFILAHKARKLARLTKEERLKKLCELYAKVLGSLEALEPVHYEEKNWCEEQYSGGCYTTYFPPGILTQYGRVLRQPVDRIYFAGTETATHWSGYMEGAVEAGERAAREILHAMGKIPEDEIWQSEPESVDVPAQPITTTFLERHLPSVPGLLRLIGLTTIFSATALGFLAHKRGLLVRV

[8] = target: Lysine-specific histone demethylase 1A (Homo sapiens) (UniProt O60341); experiment: Inhibition of KDM1A in human THP1 cells assessed as increase in CD11b expression level at 0.5 uM after 48 hrs by flow cytometric analysis; assay type: cell-based
NB-4 = experiment: Antiproliferative activity against human NB4 cells
THP-1 [9] = experiment: Antiproliferative activity against human THP1 cells
THP-1 [10] = experiment: Induction of apoptosis in human THP1 cells at 1 uM after 72 hrs by Annexin V-propidium iodide double staining based flow cytometry; assay type: functional, cell-based
THP-1 [11] = experiment: Cell cycle arrest in human THP1 cells at 1 uM after 72 hrs by propidium iodide staining based flow cytometry; assay type: functional
THP-1 [12] = experiment: Anticlonogenic activity against human THP1 cells assessed as inhibition of methylcellulose colony formation at 1 uM after 13 days relative to control; assay type: functional; conditions: THP-1, 312 h

| Compound | IC50 (LSD1/CoREST complex) | also measured |
| --- | --- | --- |
| COCc1cccc(NC(=O)c2cc3sccc3n2C)c1COc1ccc(OC[C@H]2CCNC2)cc1 | 85.7 nM | – |
| CN1CCC(Oc2ccc(COc3ccccc3NC(=O)c3cc4sccc4n3C)cc2)CC1 | 336 nM | – |
| Cn1c(C(=O)Nc2ccccc2COc2ccc(N3CCNCC3)cc2)cc2sccc21 | 1500 nM | – |
| Cn1c(C(=O)Nc2cccc(CN3CCOCC3)c2COc2ccc(OC3CCNCC3)cc2)cc2sccc21 | 65 nM | – |
| Cn1c(C(=O)Nc2ccccc2COc2ccc(OC3CCCNC3)cc2)cc2sccc21 (centres undefined) | 674 nM | – |
| Cn1c(C(=O)Nc2ccccc2CCc2ccc(OC3CCNCC3)cc2)cc2sccc21 | 177 nM | – |
| N[C@H]1CC[C@H](N[C@@H]2C[C@H]2c2ccccc2)CC1 | – | IC50 [1]: 41300 nM; IC50 [2]: 12900 nM; Activity (THP-1 [3]): inactive; Activity (THP-1 [4]): inactive; inhibition at 0.5 µM (THP-1 [5]): 70% |
| Cn1c(C(=O)Nc2ccccc2COc2ccc(OC3CCCNCC3)cc2)cc2sccc21 (centres undefined) | 64 nM | – |
| Cn1c(C(=O)Nc2ccccc2OCC2CCN(CC3CCNCC3)CC2)cc2sccc21 | 1700 nM | – |
| Cn1c(C(=O)Nc2ccccc2COc2ccc(OC3C[C@H]4CC[C@@H](C3)N4)cc2)cc2sccc21 (some centres undefined) | 124 nM | – |
| COCc1cccc(NC(=O)c2cc3sccc3n2C)c1COc1ccc(OC[C@@H]2CCNC2)cc1 | 8.4 nM | IC50 [1]: 24900 nM; inhibition [6]: Active; IC50 (MV4-11): 1200 nM; IC50 [7]: > 100000 nM; inhibition [8]: Active; IC50 (NB-4): 400 nM; IC50 (THP-1 [9]): 1300 nM |
| Cn1c(C(=O)Nc2ccccc2C(=O)Nc2ccc(OC3CCNCC3)cc2)cc2sccc21 | 2200 nM | – |
| Cn1c(C(=O)Nc2ccccc2COc2ccc([C@H]3CC[C@H](N)CC3)cc2)cc2sccc21 | 340 nM | – |
| Cn1c(C(=O)Nc2ccccc2COc2ccc(OC3CCNC3)cc2)cc2sccc21 (centres undefined) | 804 nM | – |
| COc1ccccc1NC(=O)c1cc2sccc2n1C | > 100000 nM | – |
| CCN1CCC(Oc2ccc(OCc3ccccc3NC(=O)c3cc4sccc4n3C)cc2)CC1 | 451 nM | – |
| CCn1c(C(=O)Nc2cccc(COC)c2COc2ccc(OC[C@@H]3CCNC3)cc2)cc2sccc21 | 6.7 nM | IC50 [1]: 47200 nM; inhibition [6]: Active; Activity (THP-1 [10]): inactive; Activity (THP-1 [11]): inactive; IC50 (MV4-11): 4100 nM; inhibition at 1 µM (THP-1 [12]): 63.5%; IC50 [7]: > 100000 nM; inhibition [8]: Active; IC50 (NB-4): 2900 nM; IC50 (THP-1 [9]): 1200 nM |
| CN1CCC(Oc2cccc(OCc3ccccc3NC(=O)c3cc4sccc4n3C)c2)CC1 | 1000 nM | – |
| Cn1c(C(=O)Nc2ccccc2COc2ccc(OC[C@@H]3CCNC3)cc2)cc2sccc21 | 18 nM | – |
| Cn1c(C(=O)Nc2ccc(COc3ccncc3)cc2)cc2sccc21 | 46400 nM | – |
| Cn1c(C(=O)Nc2ccccc2COc2ccc(NC3CCNCC3)cc2)cc2sccc21 | 2500 nM | – |
| CCOCc1cccc(NC(=O)c2cc3sccc3n2C)c1COc1ccc(OC2CCNCC2)cc1 | 56 nM | – |
| Cn1c(C(=O)Nc2ccc(OCc3ccncc3)cc2)cc2sccc21 | > 100000 nM | – |
